Results taken from PubChem BioAssay (NCI).
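These data come from cells grown in 96-well plates and exposed to compound for 48 hours at five concentrations. GI50: concentration for 50% inhibition of growth. Definition used: TGI = concentration required for complete inhibition of growth.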

Columns and labels:
Assay in all cases: NCI-60 cell line screen, 48 h
NCI-H23 lung = tested on: NCI-H23 lung
LOX IMVI melanoma = tested on: LOX IMVI melanoma
CCRF-CEM leukemia = tested on: CCRF-CEM leukemia
UO-31 renal = tested on: UO-31 renal
UACC-257 melanoma = tested on: UACC-257 melanoma
MDA-MB-435 = tested on: MDA-MB-435
SNB-75 CNS = tested on: SNB-75 CNS
A549 NSCLC = tested on: A549 NSCLC
COLO 205 colon = tested on: COLO 205 colon
NCI-H460 lung = tested on: NCI-H460 lung
K-562 leukemia = tested on: K-562 leukemia
HL-60(TB) leukemia = tested on: HL-60(TB) leukemia
RXF 393 renal = tested on: RXF 393 renal
OVCAR-8 ovarian = tested on: OVCAR-8 ovarian
HCC-2998 colon = tested on: HCC-2998 colon
MCF7 breast = tested on: MCF7 breast
T-47D breast = tested on: T-47D breast
HOP-62 NSCLC = tested on: HOP-62 NSCLC
OVCAR-3 ovarian = tested on: OVCAR-3 ovarian
NCI-H226 lung = tested on: NCI-H226 lung
M14 melanoma = tested on: M14 melanoma
MDA-MB-231 breast = tested on: MDA-MB-231 breast
HS 578T breast = tested on: HS 578T breast
SF-295 CNS = tested on: SF-295 CNS
HCT-116 colon = tested on: HCT-116 colon
SK-OV-3 ovarian = tested on: SK-OV-3 ovarian
KM12 colon = tested on: KM12 colon
NCI/ADR-RES ovarian = tested on: NCI/ADR-RES ovarian
SK-MEL-2 melanoma = tested on: SK-MEL-2 melanoma
PC-3 prostate = tested on: PC-3 prostate
OVCAR-5 ovarian = tested on: OVCAR-5 ovarian
HT29 colon = tested on: HT29 colon
MALME-3M melanoma = tested on: MALME-3M melanoma
SF-268 CNS = tested on: SF-268 CNS
SNB-19 CNS = tested on: SNB-19 CNS
HOP-92 NSCLC = tested on: HOP-92 NSCLC
OVCAR-4 ovarian = tested on: OVCAR-4 ovarian
SK-MEL-5 melanoma = tested on: SK-MEL-5 melanoma
786-0 renal = tested on: 786-0 renal
IGROV1 ovarian = tested on: IGROV1 ovarian
SW-620 colon = tested on: SW-620 colon
SN12C renal = tested on: SN12C renal
MOLT-4 leukemia = tested on: MOLT-4 leukemia
ACHN renal = tested on: ACHN renal
BT-549 breast = tested on: BT-549 breast
SK-MEL-28 melanoma = tested on: SK-MEL-28 melanoma
UACC-62 melanoma = tested on: UACC-62 melanoma
EKVX NSCLC = tested on: EKVX NSCLC
SF-539 CNS = tested on: SF-539 CNS
NCI-H522 lung = tested on: NCI-H522 lung
RPMI-8226 leukemia = tested on: RPMI-8226 leukemia
SR leukemia = tested on: SR leukemia
DU-145 prostate = tested on: DU-145 prostate
A498 renal = tested on: A498 renal
U251 CNS = tested on: U251 CNS
TK-10 renal = tested on: TK-10 renal
HCT-15 colon = tested on: HCT-15 colon
CAKI-1 renal = tested on: CAKI-1 renal

CCNCCCn1c2c(c3ccc(F)cc3c1=O)C(=O)c1cc(OC)cnc1-2
GI50 (NCI-H23 lung): 302 nM
TGI (NCI-H23 lung): 1540 nM
GI50 (LOX IMVI melanoma): 141 nM
TGI (LOX IMVI melanoma): 319 nM
GI50 (CCRF-CEM leukemia): 164 nM
TGI (CCRF-CEM leukemia): 1120 nM
GI50 (UO-31 renal): 123 nM
TGI (UO-31 renal): 568 nM
GI50 (UACC-257 melanoma): 403 nM
TGI (UACC-257 melanoma): 2160 nM
GI50 (MDA-MB-435): 477 nM
TGI (MDA-MB-435): 2130 nM
GI50 (SNB-75 CNS): 364 nM
TGI (SNB-75 CNS): 5030 nM
GI50 (A549 NSCLC): 64.3 nM
TGI (A549 NSCLC): 256 nM
GI50 (COLO 205 colon): 68.8 nM
TGI (COLO 205 colon): 1160 nM
GI50 (NCI-H460 lung): 45.7 nM
TGI (NCI-H460 lung): 222 nM
GI50 (K-562 leukemia): 206 nM
TGI (K-562 leukemia): 1680 nM
GI50 (HL-60(TB) leukemia): 202 nM
TGI (HL-60(TB) leukemia): 644 nM
GI50 (RXF 393 renal): 260 nM
TGI (RXF 393 renal): 922 nM
GI50 (OVCAR-8 ovarian): 183 nM
TGI (OVCAR-8 ovarian): 992 nM
GI50 (HCC-2998 colon): 1060 nM
TGI (HCC-2998 colon): 2500 nM
GI50 (MCF7 breast): 42.7 nM
TGI (MCF7 breast): 2750 nM
GI50 (T-47D breast): 145 nM
TGI (T-47D breast): 761 nM
GI50 (HOP-62 NSCLC): 149 nM
TGI (HOP-62 NSCLC): 472 nM
GI50 (OVCAR-3 ovarian): 282 nM
TGI (OVCAR-3 ovarian): 2140 nM
GI50 (NCI-H226 lung): 144 nM
TGI (NCI-H226 lung): 327 nM
GI50 (M14 melanoma): 336 nM
TGI (M14 melanoma): 1720 nM
GI50 (MDA-MB-231 breast): 404 nM
TGI (MDA-MB-231 breast): 1930 nM
GI50 (HS 578T breast): 1620 nM
TGI (HS 578T breast): 13500 nM
GI50 (SF-295 CNS): 194 nM
TGI (SF-295 CNS): 721 nM
GI50 (HCT-116 colon): 136 nM
TGI (HCT-116 colon): 550 nM
GI50 (SK-OV-3 ovarian): 221 nM
TGI (SK-OV-3 ovarian): 752 nM
GI50 (KM12 colon): 259 nM
TGI (KM12 colon): 10000 nM
GI50 (NCI/ADR-RES ovarian): 374 nM
TGI (NCI/ADR-RES ovarian): 4890 nM
GI50 (SK-MEL-2 melanoma): 1130 nM
TGI (SK-MEL-2 melanoma): 4120 nM
GI50 (PC-3 prostate): 301 nM
TGI (PC-3 prostate): 10300 nM
GI50 (OVCAR-5 ovarian): 331 nM
TGI (OVCAR-5 ovarian): 1900 nM
GI50 (HT29 colon): 147 nM
TGI (HT29 colon): 860 nM
GI50 (MALME-3M melanoma): 329 nM
TGI (MALME-3M melanoma): 1440 nM
GI50 (SF-268 CNS): 386 nM
TGI (SF-268 CNS): 10900 nM
GI50 (SNB-19 CNS): 160 nM
TGI (SNB-19 CNS): 1260 nM
GI50 (HOP-92 NSCLC): 360 nM
TGI (HOP-92 NSCLC): 4390 nM
GI50 (OVCAR-4 ovarian): 460 nM
TGI (OVCAR-4 ovarian): 11000 nM
GI50 (SK-MEL-5 melanoma): 254 nM
TGI (SK-MEL-5 melanoma): 1060 nM
GI50 (786-0 renal): 195 nM
TGI (786-0 renal): 755 nM
GI50 (IGROV1 ovarian): 330 nM
TGI (IGROV1 ovarian): 4490 nM
GI50 (SW-620 colon): 170 nM
TGI (SW-620 colon): 5550 nM
GI50 (SN12C renal): 151 nM
TGI (SN12C renal): 763 nM
GI50 (MOLT-4 leukemia): 48.5 nM
TGI (MOLT-4 leukemia): 369 nM
GI50 (ACHN renal): 127 nM
TGI (ACHN renal): 371 nM
GI50 (BT-549 breast): 936 nM
TGI (BT-549 breast): 5140 nM
GI50 (SK-MEL-28 melanoma): 1230 nM
TGI (SK-MEL-28 melanoma): 3450 nM
GI50 (UACC-62 melanoma): 341 nM
TGI (UACC-62 melanoma): 1850 nM
GI50 (EKVX NSCLC): 328 nM
TGI (EKVX NSCLC): 2780 nM
GI50 (SF-539 CNS): 320 nM
TGI (SF-539 CNS): 1390 nM
GI50 (NCI-H522 lung): 56.2 nM
TGI (NCI-H522 lung): 1020 nM
GI50 (RPMI-8226 leukemia): 144 nM
TGI (RPMI-8226 leukemia): 692 nM
GI50 (SR leukemia): 127 nM
TGI (SR leukemia): 978 nM
GI50 (DU-145 prostate): 215 nM
TGI (DU-145 prostate): 1370 nM
GI50 (A498 renal): 248 nM
TGI (A498 renal): 1350 nM
GI50 (U251 CNS): 100 nM
TGI (U251 CNS): 506 nM
GI50 (TK-10 renal): 296 nM
TGI (TK-10 renal): 1670 nM
GI50 (HCT-15 colon): 228 nM
TGI (HCT-15 colon): 3320 nM

COc1cc(Nc2nc3ccccc3n3cccc23)cc(OC)c1OC
TGI (NCI-H23 lung): > 100000 nM
TGI (LOX IMVI melanoma): > 100000 nM
TGI (CCRF-CEM leukemia): > 100000 nM
TGI (UO-31 renal): > 100000 nM
TGI (UACC-257 melanoma): > 100000 nM
TGI (MDA-MB-435): > 100000 nM
TGI (A549 NSCLC): > 100000 nM
TGI (COLO 205 colon): > 100000 nM
TGI (NCI-H460 lung): > 100000 nM
TGI (K-562 leukemia): > 100000 nM
TGI (HL-60(TB) leukemia): > 100000 nM
TGI (RXF 393 renal): 99600 nM
TGI (OVCAR-8 ovarian): > 100000 nM
TGI (HCC-2998 colon): > 100000 nM
TGI (MCF7 breast): > 100000 nM
TGI (T-47D breast): 821 nM
TGI (HOP-62 NSCLC): 72900 nM
TGI (OVCAR-3 ovarian): > 100000 nM
TGI (M14 melanoma): > 100000 nM
TGI (MDA-MB-231 breast): > 100000 nM
TGI (HS 578T breast): > 100000 nM
TGI (SF-295 CNS): > 100000 nM
TGI (HCT-116 colon): > 100000 nM
TGI (SK-OV-3 ovarian): > 100000 nM
TGI (KM12 colon): > 100000 nM
TGI (NCI/ADR-RES ovarian): > 100000 nM
TGI (SK-MEL-2 melanoma): > 100000 nM
TGI (PC-3 prostate): > 100000 nM
TGI (OVCAR-5 ovarian): > 100000 nM
TGI (HT29 colon): > 100000 nM
TGI (MALME-3M melanoma): > 100000 nM
TGI (SF-268 CNS): > 100000 nM
TGI (SNB-19 CNS): > 100000 nM
TGI (HOP-92 NSCLC): > 100000 nM
TGI (SK-MEL-5 melanoma): > 100000 nM
TGI (786-0 renal): > 100000 nM
TGI (IGROV1 ovarian): > 100000 nM
TGI (SW-620 colon): > 100000 nM
TGI (MOLT-4 leukemia): > 100000 nM
TGI (ACHN renal): > 100000 nM
TGI (BT-549 breast): > 100000 nM
TGI (SK-MEL-28 melanoma): > 100000 nM
TGI (UACC-62 melanoma): > 100000 nM
TGI (EKVX NSCLC): > 100000 nM
TGI (SF-539 CNS): > 100000 nM
TGI (NCI-H522 lung): > 100000 nM
TGI (CAKI-1 renal): > 100000 nM
TGI (RPMI-8226 leukemia): > 100000 nM
TGI (SR leukemia): > 100000 nM
TGI (DU-145 prostate): > 100000 nM
TGI (A498 renal): > 100000 nM
TGI (U251 CNS): > 100000 nM
TGI (TK-10 renal): > 100000 nM
TGI (HCT-15 colon): > 100000 nM
